Holding throughout (assay type): physicochemical
Series [1] can be described thus: Proton relaxivity R^1 in plasma (Minispec P 20). The conditions noted are these: in plasma (bovine) at 40° C., field strength 0.47 Tesla. On the procedure:
As a third criterion, the proton-relaxivity in plasma (R^1) at 40° C. and a field strength of 0.47 tesla are used. The relaxivity, which is indicated in [l/mmol·s], is the quantitative measurement for the shortening of relaxation time T^1 of the protons. For the purpose according to the invention, the relaxivity must be as high as possible and >10 l/mmol·s, preferably >13 l/mmol·s, especially preferably >15 l/mmol·s.
Relaxivity R^1 [l/mmol·s] of the MR-contrast media according to the invention was determined with the Minispec P 20 device of the Bruker Company. The measurements were taken at 40° C. and a field strength of 0.47 tesla. Eight measuring points were recorded by each T1-sequence: 180°-TI-90°, inversion recovery. As a medium, bovine plasma of the Kraeber Company was used. The contrast medium concentrations [mmol/l] in the batches were between 0.30 and 1.16.
The measurements were carried out in plasma at 40° C. and a field strength of 0.47 Tesla.

Series [2] is described as follows: Critical micelle formation concentration (CMC) by tensiometry. On the procedure: In aqueous systems, these amphiphilic molecules show the properties that are characteristic of standard surfactants (such as, e.g., sodium dodecylsulfate, SDS). They thus reduce the surface tension of water. By tensiometry, the so-called CMC (critical micelle formation concentration in mol/l) can be determined. In this respect, the surface tension is determined based on the concentration of the substance to be measured. The CMC can be calculated from the plot of the surface tension function (c) that is obtained. The critical micelle formation concentration of the compounds according to the invention must be <10^−3 mol/l, preferably <10^−4 mol/l.
(§1) Both the determination of the CMC and the photon correlation spectroscopy are described in H.-D. Dörfler, “Grenzflächen-und Kolloidchemie [Interface and Colloid Chemistry],” Weinheim, New York, Basel, Cambridge, Tokyo, VSH 1994.

A short description of series [3]: Hydrodynamic micelle diameter 2 Rh by photon correlation spectroscopy.
Source text: The amphiphilic compounds according to the invention are associated in solution and are present as aggregates. The size (2 Rh) of such aggregates (e.g., micelles, rods, wafers, etc.) can be determined with the aid of […] (PCS).
As a second criterion, the hydrodynamic micelle diameter 2 Rh, which must be >1 nm, is therefore used. In particular, those perfluoroalkyl-containing metal complexes according to the invention whose 2 RH≧3 nm, quite especially preferably >4 nm, are suitable.
as §1

We go through 4 compounds from patent US7344704B2, “Use of perfluoroalkyl-containing metal complexes as contrast media in MR-imaging for visualization of intravascular thrombi” (Schering AG, priority 2002, dated 2008).

Consider `COCCOCCOCCOCCOCC(=O)NCCCC[C@H](NC(=O)COCCC(F)(F)C(F)(F)C(F)(F)C(F)(F)C(F)(F)C(F)(F)C(F)(F)C(F)(F)F)C(=O)NCC(O)CN1CCN(CC(=O)[O-])CCN(CC(=O)[O-])CCN(CC(=O)[O-])CC1.[Gd+3]` (stereo partly drawn) [MK 28, 6-N-3,6,9,12,15-Pentaoxahexadecanoyl-2-N-2H,2H,4H,4H,5H,5H-3-oxaperfluorotridecanoyl-L-lysine-N-{1,4,7-tris[carboxylatomethyl]-1,4,7,10-tetraazacyclododecane-10-(2-hydroxy-3-yl), gadoliniumcomplex}-amide], for which, in series [1], the “R^1 (Relaxivity)” value is 27.9 l: mmol · s. Also, the “CMC (Critical Micelle Formation Concentration)” value (“CMC” below) in series [2] was found to be 8.1e-06 mol/L. The “2 Rh (Hydrodynamic Micelle Diameter)” value in series [3] came to 4.7 nm.

Turning to `O=C([O-])CN1CCN(CC(=O)[O-])CCN(CC(O)CNC(=O)CNC(=O)CNC(=O)CNC(=O)COCCC(F)(F)C(F)(F)C(F)(F)C(F)(F)C(F)(F)C(F)(F)C(F)(F)C(F)(F)F)CCN(CC(=O)[O-])CC1.[Gd+3]` (stereo not drawn) [MK 30, 1,4,7-Tris(carboxylatomethyl)-1,4,7,10-tetraazacyclododecane-10-{2-hydroxy-3-N-[triglycidyl-N-(2H,2H,4H,4H,5H,5H-3-oxa-perfluorotridecanoyl)]amino}-propyl, gadolinium complex], the “R^1 (Relaxivity)” value in series [1] was 27.9 l: mmol · s. Besides, the “CMC” value in series [2] stood at 7e-06 mol/L. Besides, the “2 Rh (Hydrodynamic Micelle Diameter)” value in series [3] is listed as 7.9 nm.

“Gadolinium complex of 10-{1-carboxy-2-carbonyl-[piperazin-1-yl-4-(perfluorooctylsulfonyl)]}-ethyl-1,4,7-tris(carboxymethyl)-1,4,7,10-tetraazacyclododecane, Sodium salt [MK 29]”: in series [1], the “R^1 (Relaxivity)” value is on record as 17.7 l: mmol · s. The “CMC” value in series [2] came to 7.6e-05 mol/L. The “2 Rh (Hydrodynamic Micelle Diameter)” value in series [3] was found to be 4.8 nm.

With “gadolinium complex of 1,4,7-tris{1,4,7-tris(N-(carboxylatomethyl)-10-[N-1-methyl-3,6-diaza-2,5,8-trioxooctane-1,8-diyl)]-1,4,7,10-tetraazacyclododecane, Gd complex}-10-[N-2H,2H,4H,4H,5H,5H-3-oxa-perfluorotridecanoyl]-1,4,7,10-tetraazacyclododecane [MK 12]”, the “R^1 (Relaxivity)” value in series [1] was 19.5 l: mmol · s. Besides, the “CMC” value in series [2] was 0.00089 mol/L. Also, the “2 Rh (Hydrodynamic Micelle Diameter)” value in series [3] amounted to 2.2 nm.
